Test results from patent US12263172B2, “Toll-like receptor agonists for use in the treatment of hepatitis b” (priority 2019, dated 2025).
Where “and” joins values, the source holds several entries; their conditions need not be identical. Equal entries are not always repeated. Entries after “also recorded” stand apart in the source; their conditions may differ. Where two headings read alike, the source gives them in different places.

Columns and labels:
[1] = pharmacokinetics and excretion in rat; type: in vivo
Description: (§1) Exposure increased more than dose-proportionally at low doses. Variability in exposure was high. • In vitro plasma protein binding was between 79.6% and 94.2% in animals and humans. Volume of distribution after intravenous dosing was high. […] Main metabolic pathways were oxygenation, hydrogenation, dehydrogenation, dealkylation, acetylation, glucuronidation, and/or glutathione conjugation. • In rats, >80% of drug-related material was found in feces, 11% to 20% in bile, and <4% in urine. […] There were no effects on embryofetal development up to 1 mg/kg/dose in rats and 30 mg/kg/dose in rabbits.

human whole blood cells = experiment: cytokine release in vitro in whole blood cells; type: cell-based
Description: as §1
LEC for Compound 4-induced cytokine release in vitro was determined to be 2 nM.

[2] = tested on: cytokines and ISGs (ISG15, MX1, OAS1); experiment: Phase 1 multiple dose pharmacodynamics in healthy adults; type: in vivo, human; conditions: 1.25 mg qw
Procedure: Serum levels of IFN-α were measured by ELISA. Serum levels of IP-10, IFN-γ, TNF-α, IL-12 (subunit P40), IL-6, IL-1β, IL-1RA, IL-18, MCP-1, MIP-1β, G-CSF, GM-CSF, IL-10, IL-15 were measured by Luminex xMAP technology. The LLOQ for IFN-α was determined at 12.5 pg/mL and at 25 pg/mL for all other cytokines measured. Fold changes for each of the cytokines were calculated compared to predose values or LLOQ-1 values if predose values were below LLOQ.
IFN-stimulated gene (ISG) expression analysis was conducted for 3 genes, ISG15, MX1, and OAS1, using quantitative polymerase chain reaction (qPCR) on collected whole blood samples. For the ISGs, relative fold changes from baseline were calculated according to the delta delta Cycle threshold (Ct) method (2^[Delta Delta Ct]). Assessments were done for Part 1 predose and postdose: 1.5 hours, 6 hours, 12 hours (Day 1), 24 hours (day 2), 48 hours (Day 3), 96 hours (Day 5), follow-up Week 2. For the Part 2, assessments were done predose and post the first and fourth dose: 2 hours, 4 hours, 12 hours, 24 hours, 48 hours, 96 hours and one week follow-up; and post the second and third doses: 12 hours and 48 hours.

[3] = Phase 1 multiple dose pharmacokinetics in healthy adults; type: in vivo, human
Procedure: (§2) Following a single dose of Compound 4, intensive blood samples were collected over the first 24 hours, samples were then collected daily through Day 7, and weekly samples were collected through Day 35. Plasma concentrations of Compound 4 were evaluated using a validated liquid chromatography with tandem mass spectrometry method; the lower limit of quantification was 1 pg/mL. PK parameters were estimated using non-compartmental analysis (WinNonlin®, Certara, Princeton, NJ, USA). Descriptive statistics were used to summarize plasma concentrations and derived PK parameters of Compound 4. The impact of food on PK parameters was analyzed using geometric least square mean point estimates (mixed-effects model on log-transformed values with treatment as fixed effect and subject as a random effect).
Compound 4 was administered every week for 4 weeks in fasted condition at a dose of 1.25 mg.

[4] = Phase 1 single oral dose pharmacokinetics in healthy adults; type: in vivo; conditions: for AUC(0-t): read-out: AUC24 h
Procedure: This ongoing trial is a Phase 1 randomized, double-blind, placebo-controlled study in male and female healthy adult volunteers aged 18-55 years. All volunteers provided written, informed consent. For the SAD phase, 8-10 volunteers per cohort were randomized 6-8:2 to receive a single oral dose of either Compound 4 0.2 (N=6), 0.6 (N=6), 1.25 (N=8) or 1.8 mg (N=6) or placebo (N=2/dose group) under fasted conditions; following an ˜6-week washout period, the cohort subjects which had received 1.25 mg under fasted conditions in Cohort 4 were given the same 1.25 mg dose (N=7) under fed conditions (a standard meal consumed before dosing), in Cohort 6 (FIG. 1). Escalation of the Compound 4 dose was only permitted following a review of the safety and PK data from the previous cohort.
as §2

[5] = embryofetal development in rats; type: in vivo
Description: as §1

[6] = 6-month toxicity study in Cynomolgus monkeys; conditions: cynomolgus monkey, in vivo
Description: as §1

[7] = pharmacokinetics in monkey; conditions: in vivo, po
Description: as §1

[8] = in vitro plasma protein binding; type: in vitro ADME; conditions: human, animals and humans
Description: as §1

[9] = 6-month toxicity study in rats; conditions: rat, in vivo
Description: as §1

[10] = 14- and 28-day toxicity study in monkeys; type: in vivo; conditions: 3, 15, and 100 mg/kg biw
Description: as §1

[11] = 12 hours after the second administration
[12] = after 4 weeks of qw dosing, 1.25 mg
[13] = both sexes, human, plasma, oral, 0.2 mg, single dose 0.2 mg fasted, mean ± SD
[14] = both sexes, human, plasma, oral, 0.6 mg, single dose 0.6 mg fasted, mean ± SD
[15] = both sexes, human, plasma, oral, 1.25 mg, single dose 1.25 mg fasted, mean ± SD
[16] = both sexes, human, plasma, oral, 1.25 mg, single dose 1.25 mg fed, mean ± SD
[17] = both sexes, human, plasma, oral, 1.8 mg, single dose 1.8 mg fasted, mean ± SD

CCCCOc1nc(N)c2[nH]cc(Cc3ccc(CN4CCCC4)cc3)c2n1 [Compound 4]
bioavailability ([1]; rat, in vivo, po): 15% | drug-related material found in feces ([1]; rats): > 80% | drug-related material found in urine ([1]; rats): < 4% | overall LEC for cytokine release in vitro (human whole blood cells): 2 nM | potency on human versus monkey whole blood cells (human whole blood cells; most cytokines and chemokines tested): more potent on human whole blood cells compared to monkey whole blood cells | IFN-α or IP-10 levels before the subsequent dose [2]: values returned to baseline before administration of the subsequent dose | PD responses after the last dose compared to the first dose [2]: No enhanced induction of PD responses as well as no evidence for tachyphylaxis | fold increase of IFN-α in the subject with cotton wool spots [2, 11]: 8.4 fold | maximum IFN-α level in the subject with cotton wool spots [2, 11]: 97 pg/mL | excreted as unchanged drug in urine within the first 24 hours after the first and second dosing ([3]; 1.25 mg qw fasted): Less than 0.22% | terminal elimination, median value ([3]; 1.25 mg qw fasted): 244 h | mean accumulation ratio for AUC24h [3, 12]: 1.83 | mean accumulation ratio for AUC72h [3, 12]: 2.27 | mean accumulation ratio for AUCT [3, 12]: 2.75 | Cmax ([3]; human, plasma, oral, 1.25 mg, 1.25 mg qw fasted, SD 67.2, read-out: mean Cmax after the fourth dose): 0.235 ng/mL | Cmax ([3]; human, plasma, oral, 1.25 mg, 1.25 mg qw fasted, SD 88.4, read-out: mean Cmax after the first dose): 0.186 ng/mL | AUC ([3]; human, plasma, oral, 1.25 mg, 1.25 mg qw fasted, SD 591, read-out: mean AUC24h after the fourth dose): 1.76 ng·h/mL | AUC ([3]; human, plasma, oral, 1.25 mg, 1.25 mg qw fasted, SD 874, read-out: mean AUC24h after the first dose): 1.21 ng·h/mL | concentration at 21 days ([3]; human, plasma, oral, 1.25 mg qw fasted, read-out: mean Ctrough before the fourth dose): 0.0408 ± 0.0489 ng/mL | concentration at 7 days ([3]; human, plasma, oral, 1.25 mg qw fasted, read-out: mean Ctrough before the second dose): 0.00717 ± 0.0032 ng/mL | least square mean ratio point estimate of AUC48h, fed vs fasted ([4]; 1.25 mg, 90% CI 65.89-105.71): 83.45 | Predose Level ([4]; before 1.25 mg fed dose, on average 41 days after 1.25 mg fasted dose, mean ± SD): 1.85 pg/mL and 1.85 ± 0.597 pg/mL | Cmax [4, 13]: 0.0344 ± 0.0179 ng/mL | AUC(0-t) [4, 13]: 0.19 ± 0.0972 ng·h/mL | Tmax ([4]; both sexes, human, plasma, oral, 0.2 mg, single dose 0.2 mg fasted, median (range), read-out: tmax): 30 min | Cmax [4, 14]: 0.109 ± 0.0281 ng/mL | AUC(0-t) [4, 14]: 0.594 ± 0.21 ng·h/mL | Tmax ([4]; both sexes, human, plasma, oral, 0.6 mg, single dose 0.6 mg fasted, median (range), read-out: tmax): 30 min | Cmax [4, 15]: 0.143 ± 0.0659 ng/mL | AUC(0-t) [4, 15]: 0.815 ± 0.251 ng·h/mL | Tmax ([4]; both sexes, human, plasma, oral, 1.25 mg, single dose 1.25 mg fasted, median (range), read-out: tmax): 45 min | Cmax [4, 16]: 0.152 ± 0.0764 ng/mL | AUC(0-t) [4, 16]: 0.659 ± 0.194 ng·h/mL | Tmax ([4]; both sexes, human, plasma, oral, 1.25 mg, single dose 1.25 mg fed, median (range), read-out: tmax): 30 min | Cmax [4, 17]: 0.309 ± 0.136 ng/mL | AUC(0-t) [4, 17]: 1.37 ng·h/mL | Tmax ([4]; both sexes, human, plasma, oral, 1.8 mg, single dose 1.8 mg fasted, median (range), read-out: tmax): 30 min | concentration at 41 days ([4]; both sexes, human, plasma, oral, before 1.25 mg fed dose, on average 41 days after 1.25 mg fasted dose, mean ± SD, read-out: Predose Level): 0.00185 ng/mL | CL renal ([4]; both sexes, human, plasma, oral, single dose 1.25 mg fasted, range 1.86-3.81, read-out: mean renal clearance (converted)): 42.8 mL/min | Tmax ([4]; both sexes, human, plasma, po, single oral doses 0.2 to 1.8 mg, read-out: tmax, range over doses): 30 to 60 min | half-life ([4]; both sexes, human, plasma, single oral doses 0.2 to 1.8 mg, read-out: median t1/2 term, range over doses): 5.25 to 36.2 days | t1/2term ([4]; single dose 0.2 mg fasted, median (range)): 150 (126-212) h | CL/F ([4]; single dose 0.2 mg fasted, n = 1): 149 L/h | t1/2term ([4]; single dose 0.6 mg fasted, median (range)): 284 (104-479) h | CL/F ([4]; single dose 0.6 mg fasted, n = 1): 244 L/h | excreted as unchanged drug in urine within the first 24 hours ([4]; single dose 1.25 mg fasted): less than 0.2% | t1/2term ([4]; single dose 1.25 mg fasted, median (range)): 448 (372-502) h | CL/F ([4]; single dose 1.25 mg fasted, n = 3): 254 L/h | t1/2term ([4]; single dose 1.25 mg fed, median (range)): 591 (448-868) h | t1/2term ([4]; single dose 1.8 mg fasted, median (range)): 194 (185-205) h | dose proportionality of exposure ([4]; single oral doses 0.2 to 1.8 mg fasted): increased in proportion with the dose; also recorded: dose-proportional pharmacokinetics | post-implantation loss and fetal weights ([5]; pregnant rats, 3 mg/kg biw): Post-implantation loss and fetal weights effects were noted | dose without effects on embryofetal development ([5]; rats): up to 1 mg/kg/dose | NOAEL at 6 months ([6]; q2w): 4.5 mg/kg | NOAEL at 6 months ([6]; qw): 3 mg/kg | AUC(0-t) ([6]; 3.0 mg/kg qw or 4.5 mg/kg q2w, read-out: AUC24h at NOAEL): 13.2 to 44.8 ng·h/mL | Cmax ([6]; 3.0 mg/kg qw or 4.5 mg/kg q2w, read-out: Cmax at NOAEL): 2.56 to 16.4 ng/mL | bioavailability [7]: 1.5% | fraction unbound [8]: 0.058 to 0.204 | AUC(0-t) ([9]; 1.0 mg/kg qw or q2w, read-out: AUC24h at NOAEL): 16.6 to 27.3 ng·h/mL | Cmax ([9]; 1.0 mg/kg qw or q2w, read-out: Cmax at NOAEL): 3.32 to 7.88 ng/mL | NOAEL at 6 months ([9]; qw or q2w, 6 months): 1 mg/kg | brain inflammation [10]: Brain inflammation occurred
